From patent publication US20240299321A1, “METHODS TO SENSITIZE CANCER CELLS AND STANDARDIZED SCREENING ASSAY FOR IMMUNOTHERAPY” (THE TRUSTEES OF INDIANA UNIVERSITY, priority 2020, published 2024)

Assays:
[1] = test system: EO771 (Luc+OVA+) tumor organoids; test: Intra-tumor infiltration of T cells in tumor organoids; assay type: cell-based, mouse; details: 48 h treatment, then co-culture with OT-I T cells
Description: To evaluate intra-tumor infiltration of T cells, EO771 (Luc+OVA+) tumor organoids were treated with indicated drugs for 48 h, and then co-cultured with OT-I T cells. After co-culture for 48 h, the organoids with T cells inside or attached were dissociated by TrypLE Express (Thermo Fisher) into single cells and stained with APC/Cy7-conjugated anti-mouse CD8 (Biolegend) and SYTOX Blue reagent for 15 min. The CD8+ T cell proportions from tumor organoids were analyzed by flow cytometry.

[2] = test system: EO771 tumors; test: EO771 orthotopic breast tumor model in immunocompetent C57BL/6 mice; assay type: in vivo; details: 20 mg kg-1 intraperitoneal, 3 times/week for 2 weeks
Description: T cell effector function analysis: We measured cytokine and cytolytic granule production (IFNγ, GZMB and TNFα) of CD8+ T cells from mouse tumor samples and tumor organoid-T cell co-culture. Briefly, CD8+ T cells were placed into the 24-well plate at 1×10^6 cells/well, stimulated with 1 μM ionomycin and 50 ng ml-1 phorbol 12-myristate 13-acetate (PMA) (Sigma-Aldrich) for 4 h, in the presence of 5 μg ml-1 Brefeldin A (BFA), with the purpose to amplify the expression of intracellular cytokines61. The cells were stained with APC/Cy7-conjugated anti-CD8a (Biolegend) for 15 min and then fixed by 4% PFA. After washing, cells were stained with PerCP/Cy7-conjugated anti-GZMB, APC-conjugated anti-IFNγ and PE-conjugated anti-TNFα (Biolegend) for 15 min. In flow cytometric analyses, T cells stained with isotype control antibodies were used as negative controls for gating the cytokine or granule-producing cells. For T cells from tumor organoid-T cell co-culture, tumor organoids were first digested into single cells with TrypLE Express at 37° C. before APC/Cy7-conjugated anti-CD8a staining. In the IFNγ and TNFα secretion assay (Biolegend), T cells were stimulated with ionomycin and PMA without the presence of BFA. The media were collected for ELISA assay.
Immunohistochemistry (IHC) and Immunofluorescence (IF) analysis of tumor organoids: Tumor organoids were gently centrifuged at 100 rcf from organoid culture medium and then embedded in 2% agar. Tumor organoids were fixed in 4% paraformaldehyde solution for overnight at room temperature. The samples were replaced with 70% ethanol and later embedded in paraffin blocks. Paraffin sections were cut at 5 μm thickness, attached on slides, heated at 60° C. for 1 h and then overnight at 37° C. The slides were stained with hematoxylin and eosin (H&E). IHC staining follows the protocol described62. Mouse-specific antibodies for CD8α (Cell Signaling Technology, clone D4W2Z, 1:400 dilution), cleaved caspase3 (Cell Signaling Technology, clone D175, 1:400 dilution) and Ki67 (Cell Signaling Technology, clone D3B5, 1:400 dilution) were used for IHC staining. The DAB peroxidase substrate kit (Vector laboratories Inc.) was used to visualize the antibodies. For IF analysis, the sample slides were blocked 3% BSA for 40 min after hydration. The slides were stained with primary antibodies including EpCAM (Abcam, 1:400 dilution), FITC-conjugated anti-α-SMA (Genetex, 1:400 dilution) and AF594-conjugated anti-CD31 (Biolegend) for 1 h. For EpCAM staining, the slide was further stained with secondary antibody Alexa Fluor 647-conjugated anti-rabbit IgG (Biolegend, 1:200) for 40 min. The fluorescence images were captured under a Leica DM4B microscope.
Animal studies: All animal experiments were performed in accordance with the National Institutes of Health's Animal Use Guidelines and protocols approved by the Animal Care and Use Committee of Indiana University School of Medicine. To examine the tumorigenic potential of tumor organoids, tumor organoids with different sizes (diameter of 30-70, 70-150, and 150-500 μm) were orthotopically injected into fat pad of the 4th mammary gland in female C57BL/6 mice. Each mouse was injected with a total of 2×10^5 tumor cells. 5 mice were used in each group. Tumors were measured in two dimensions using a manual caliper. Tumor volume was calculated using the following formula: V=0.5×length×width×width. Tumor volume was measured every 3 days. Tumors were harvested 22 days after injection. The tumor growth, volume and weight were analyzed. To evaluate the anti-tumor effect of drugs in immunocompetent C57BL/6 mice and immunodeficient nude (NU/J) mice, 2×10^5 EO771 cells were orthotopically injected into fat pad of the 4th mammary gland in female mice. […]

COc1ccccc1S(=O)(=O)Nc1ccc2c(c1)CN(C)C(=O)N2 [PFI-1]
CD8+ T cell infiltration in the tumor organoids [1]: poor T cell infiltration | anti-tumor effect in animal experiments [2]: no anti-tumor effect
